Converted amounts (≈) assume the structure as drawn. “And” between values parts separate entries of the source, which are not always exact repeats. Equal entries are not always repeated.
Tests used:
[1] = tested on: Golgi morphology of C. neoformans; experiment: C6-NBD-ceramide staining of the Golgi; assay type: cell-based, Cryptococcus neoformans; settings: 4 μg/ml
Procedure: The Golgi apparatus of C. neoformans and C. albicans was stained with C6-NBD-ceramide using a previously described protocol (Kmetzsch, L. et al. 2011), based on the property that this fluorescent lipid accumulates at the Golgi of either living or fixed cells (Pagano R. E. et al. 1989). […] Cell suspensions were then washed with the same buffer and incubated with C6-NBD-ceramide ([…]) for 16 h at 4° C. The cells were then incubated with bovine serum albumin (BSA, 1%) at 4° C. for 1 h to remove the excess of C6-NBD-ceramide. […] Louis, USA) for 30 min at room temperature. The cells were washed again with PBS and stained cell suspensions were mounted over glass slides as described above and analyzed under an Axioplan 2 (Zeiss, Germany).

Blastomyces dermatitis = experiment: In vitro susceptibility testing (MIC); assay type: cell-based; settings: for BHBM 96 Hr 50%: MIC, FTL strains
E. coli DH5α = experiment: Antibacterial activity, LB agar well diffusion; settings: up to 160 μg/mL, 30° C., 24 hr
[2] = tested on: synthesis of GlcCer in mammalian (J774) cells; experiment: In vivo labeling with 3H palmitate, TLC of GlcCer; assay type: cell-based, murine; settings: 3H palmitate labeling
Histoplasma capsulatum = assay type: cell-based
Solubility = assay type: physicochemical; settings: at 1 mg/ml concentration
Candida parapsilosis = experiment: In vitro susceptibility testing (MIC); assay type: cell-based; settings: for BHBM 24 Hr 50% / BHBM 48 Hr 50%: MIC, FTL strains
C. neoformans (H99) = experiment: Transmission electron microscopy of treated cells; settings: 4 μg/mL, 6 hours
C. neoformans H99 = experiment: Animal studies for cryptococcosis (intranasal infection); assay type: in vivo, mice
Coccidioides spp = experiment: microbe, parasite or virus in culture; assay type: cell-based; settings: for BHBM 48 Hr 50%: MIC, FTL strains

## Cc1ccccc1C(=O)NN=Cc1ccc(O)c(Br)c1 [BHBM, N′-(3-bromo-4-hydroxybenzylidene)-2-methylbenzohydrazide]
[1]
  Golgi morphology: significant alterations in the Golgi morphology
Blastomyces dermatitis
  in vitro activity: good in vitro activity
  BHBM 96 Hr 50%: 1 and 2
Blastomyces dermatitis; 10 Fungus Testing Lab strains
  MIC range: 0.5 to 1 µg/mL
Blastomyces dermatitis; first listing r7-r78
  BHBM 96 Hr 50%: 1 and 0.5
E. coli DH5α
  zone of inhibition: No zone of inhibition
[2]
  inhibition of the synthesis of GlcCer: no significant changes
[2]; listed as #5271226
  inhibition of the synthesis of GlcCer: not in mammalian (J774) cells
Histoplasma capsulatum
  in vitro activity: good in vitro activity
Histoplasma capsulatum; 10 Fungus Testing Lab strains
  MIC range: 0.125 to 1 µg/mL
Solubility
  DMSO required: 30%
Candida parapsilosis
  in vitro activity: not active
  BHBM 24 Hr 50%: >16
  BHBM 48 Hr 50%: >16
Candida parapsilosis; 3 MDP Lab strains
  MIC range: >32 µg/mL
Candida parapsilosis; first listing r7-r78
  BHBM 24 Hr 50%: >16
  BHBM 48 Hr 50%: >16
Candida parapsilosis; QC, Fungus Testing Lab
  MIC range: >16 µg/mL
C. neoformans (H99)
  number of vacuoles per μm^2 of cell surface area: 0.84±0.58
C. neoformans H99; 1.2 mg/Kg/day intraperitoneally, up to 60 days
  mice surviving infection: 90%
C. neoformans H99; 1.2 mg/Kg/day, day 60
  fungal burden in brain: No C. neoformans cells were found in brains
C. neoformans H99; 1.2 mg/Kg/day, day 60, compared to infected untreated mice
  fungal burden in lung: decrease the fungal burden in the lung
C. neoformans H99; day 60
  brain histology: no fungal cells and normal structure
  lung histology: granulomatous response limited in few areas of the lung
Coccidioides spp; 10 Fungus Testing Lab strains
  MIC range: 8 to 16 µg/mL
Coccidioides spp; Coccidioides, read-out: MIC (moderately active)
  MIC: 8 to 16 µg/mL (≈ 24 to 48 µM)
Coccidioides spp
  BHBM 48 Hr 50%: 16 and 8 and >16
Coccidioides spp; first listing r7-r78
  BHBM 48 Hr 50%: 8 and 16

From patent US11390580B2, “Anti-fungals targeting the synthesis of fungal shingolipids” (THE RESEARCH FOUNDATION FOR THE STATE UNIVERSITY OF NEW YORK, priority 2014, dated 2022)
